Experimental data as given in patent US9211310B2, “Use of a Chinese medicine composition in preparing medicaments for treating secondary prevention of myocardial infarction” (TASLY PHARMACEUTICAL GROUP CO., LTD, priority 2010, dated 2015).

Test system: patients after acute myocardial infarction
Assay: Life quality, Seattle Angina Questionnaire (SAQ), same clinical trial
Assay type: in vivo, human
Settings: FAS
Source text: 3508 patients who were in accordance with the diagnostic standards of AMI for 28 days to 2 years and differentiated as Qi deficiency and blood stagnation syndrome by TCM were studied. 0.5 g Chinese medicine composition prepared by the method of EXAMPLE 1 (Coded as QSYQ) was administrated half an hour after meal, 3 times per day.
There were 19 questions in the Seattle angina questionnaire (SAQ), including 5 parts: physical limitation (PL), anginal stability (AS), anginal frequency (AF), treatment satisfaction (TS) and disease perception (DP). After being given necessary explanation by doctors, the questions were answered independently by patients.
They included the overall survival time, angina pectoris score, TCM symptom score and life quality score, where angina pectoris score, TCM symptom score and life quality score were evaluated at randomization, in 1st, 3rd, 6th, 9th, 12th month after treatment and 18th month after follow-up.
All evaluation results of SAQ were described during the period of observation, and Wilcoxon rank sum test was used for inter-group comparison.
The evaluation results in the SAQ were depicted in different observations, and inter-group comparison was tested by Wilcoxon Rank-sum test.

With CC(=O)Oc1ccccc1C(=O)O [Control group, aspirine] the “SAQ 6th question, Mostly satisfied: % of patients” value (3 months after treatment) was “(51.83%)”, the “SAQ 6th question, Mostly satisfied: number of patients” value (3 months after treatment) was 904 and the “SAQ 6th question, Partly satisfied: % of patients” value (3 months after treatment) was “(25.69%)”. For the same compound, the “SAQ 6th question, Partly satisfied: number of patients” value (3 months after treatment) was 448, the “SAQ 7th question, Dissatisfied: % of patients” value (3 months after treatment) was “(0.11%)” and the “SAQ 7th question, Dissatisfied: number of patients” value (3 months after treatment) was 2. For the same compound, the “SAQ 7th question, Highly satisfied: % of patients” value (3 months after treatment) was “(22.68%)”, the “SAQ 7th question, Highly satisfied: number of patients” value (3 months after treatment) was 395 and the “SAQ 7th question, Mostly dissatisfied: % of patients” value (3 months after treatment) was “(1.95%)”. For the same compound, the “SAQ 7th question, Mostly dissatisfied: number of patients” value (3 months after treatment) was 34, the “SAQ 7th question, Mostly satisfied: % of patients” value (3 months after treatment) was “(54.08%)” and the “SAQ 7th question, Mostly satisfied: number of patients” value (3 months after treatment) was 942. For the same compound, the “SAQ 7th question, Partly satisfied: % of patients” value (3 months after treatment) was “(21.18%)”, the “SAQ 7th question, Partly satisfied: number of patients” value (3 months after treatment) was 369 and the “SAQ Question 1-1 Mildly limited, number of patients” value (3 months after treatment) was 26. For the same compound, the “SAQ Question 1-1 Mildly limited, percent of patients” value (3 months after treatment) was “(1.49%)”, the “SAQ Question 1-1 Moderately limited, number of patients” value (3 months after treatment) was 7 and the “SAQ Question 1-1 Moderately limited, percent of patients” value (3 months after treatment) was “(0.40%)”. For the same compound, the “SAQ Question 1-1 Not limited, number of patients” value (3 months after treatment) was 1634, the “SAQ Question 1-1 Not limited, percent of patients” value (3 months after treatment) was “(93.69%)” and the “SAQ Question 1-1 Other reasons, number of patients” value (3 months after treatment) was 4. For the same compound, the “SAQ Question 1-1 Other reasons, percent of patients” value (3 months after treatment) was “(0.23%)”, the “SAQ Question 1-1 Severely limited, number of patients” value (3 months after treatment) was 1 and the “SAQ Question 1-1 Severely limited, percent of patients” value (3 months after treatment) was “(0.06%)”. For the same compound, the “SAQ Question 1-1 Slightly limited, number of patients” value (3 months after treatment) was 72, the “SAQ Question 1-1 Slightly limited, percent of patients” value (3 months after treatment) was “(4.13%)” and the “SAQ Question 1-2 Mildly limited, number of patients” value (3 months after treatment) was 23. The “SAQ Question 1-2 Mildly limited, percent of patients” value (3 months after treatment) was “(1.32%)”, the “SAQ Question 1-2 Moderately limited, number of patients” value (3 months after treatment) was 10 and the “SAQ Question 1-2 Moderately limited, percent of patients” value (3 months after treatment) was “(0.57%)”. For the same compound, the “SAQ Question 1-2 Not limited, number of patients” value (3 months after treatment) was 1603, the “SAQ Question 1-2 Not limited, percent of patients” value (3 months after treatment) was “(91.92%)” and the “SAQ Question 1-2 Other reasons, number of patients” value (3 months after treatment) was 7. The “SAQ Question 1-2 Other reasons, percent of patients” value (3 months after treatment) was “(0.40%)”, the “SAQ Question 1-2 Severely limited, number of patients” value (3 months after treatment) was 0 and the “SAQ Question 1-2 Severely limited, percent of patients” value (3 months after treatment) was “(0.00%)”. For the same compound, the “SAQ Question 1-2 Slightly limited, number of patients” value (3 months after treatment) was 101, the “SAQ Question 1-2 Slightly limited, percent of patients” value (3 months after treatment) was “(5.79%)” and the “SAQ Question 1-6: Mildly limited, patients (%)” value (3 months after treatment) was “(18.23%)”. For the same compound, the “SAQ Question 1-6: Moderately limited, patients (%)” value (3 months after treatment) was “(13.05%)”, the “SAQ Question 1-6: Not limited, patients (%)” value (3 months after treatment) was “(31.45%)” and the “SAQ Question 1-6: Other reasons, patients (%)” value (3 months after treatment) was “(0.92%)”. For the same compound, the “SAQ Question 1-6: Severely limited, patients (%)” value (3 months after treatment) was “(4.14%)”, the “SAQ Question 1-6: Slightly limited, patients (%)” value (3 months after treatment) was “(32.20%)” and the “SAQ Question 1-7: Mildly limited, patients (%)” value (3 months after treatment) was “(23.77%)”. For the same compound, the “SAQ Question 1-7: Moserately limited, patients (%)” value (3 months after treatment) was “(15.07%)”, the “SAQ Question 1-7: Not limited, patients (%)” value (3 months after treatment) was “(13.91%)” and the “SAQ Question 1-7: Other reasons, patients (%)” value (3 months after treatment) was “(3.01%)”. For the same compound, the “SAQ Question 1-7: Severely limited, patients (%)” value (3 months after treatment) was “(15.88%)”, the “SAQ Question 1-7: Slightly limited, patients (%)” value (3 months after treatment) was “(28.35%)” and the “SAQ Question 1-8: Mildly limited, patients (%)” value (3 months after treatment) was “(25.55%)”. The “SAQ Question 1-8: Moderately limited, patients (%)” value (3 months after treatment) was “(17.89%)”, the “SAQ Question 1-8: Not limited, patients (%)” value (3 months after treatment) was “(10.69%)” and the “SAQ Question 1-8: Other reasons, patients (%)” value (3 months after treatment) was “(3.02%)”. The “SAQ Question 1-8: Severely limieted, patients (%)” value (3 months after treatment) was “(21.02%)”, the “SAQ Question 1-8: Slightly limited, patients (%)” value (3 months after treatment) was “(21.84%)” and the “8th question: Dissatisfied, patients (%)” value (6 months after treatment) was “(0.17%)”. The “8th question: Highly satisfied, patients (%)” value (6 months after treatment) was “(20.30%)”, the “8th question: Mostly satisfied, patients (%)” value (6 months after treatment) was “(56.59%)” and the “8th question: Partly satisfied, patients (%)” value (6 months after treatment) was “(20.70%)”. For the same compound, the “9th question: Few, patients (%)” value (6 months after treatment) was “(34.75%)”, the “9th question: Mild, patients (%)” value (6 months after treatment) was “(34.63%)” and the “9th question: Severe, patients (%)” value (6 months after treatment) was “(0.86%)”. For the same compound, the “9th question: Uneffective, patients (%)” value (6 months after treatment) was “(18.12%)”, the “10th question: Dissatisfied, patients (%)” value (6 months after treatment) was “(20.87%)” and the “10th question: Highly satisfied, patients (%)” value (6 months after treatment) was “(4.64%)”. For the same compound, the “10th question: Mostly dissatisfied, patients (%)” value (6 months after treatment) was “(21.56%)”, the “10th question: Mostly satisfied, patients (%)” value (6 months after treatment) was “(26.61%)” and the “10th question: Partly satisfied, patients (%)” value (6 months after treatment) was “(26.32%)”. The “11th question: Continuously worried, patients (%)” value (6 months after treatment) was “(4.42%)”, the “11th question: No worried, patients (%)” value (6 months after treatment) was “(4.93%)” and the “11th question: Occasionally worried, patients (%)” value (6 months after treatment) was “(41.69%)”. The “11th question: Often worried, patients (%)” value (6 months after treatment) was “(14.85%)”, the “11th question: Seldom worried, patients (%)” value (6 months after treatment) was “(34.12%)” and the “SAQ 4th question, 1-2 times per week: % of patients” value (6 months after treatment) was “(17.55%)”. The “SAQ 4th question, 1-2 times per week: number of patients” value (6 months after treatment) was 306 and the “SAQ 4th question, 1-3 times per day: % of patients” value (6 months after treatment) was “(4.70%)”.
